≈ marks a conversion by molar mass, not a printed value.
Tests used:
Proteus rettgeri = experiment: In vitro antimicrobial activity (minimum inhibitory concentration); type: cell-based; settings: Providencia rettgeri
Description: (§1) In vitro activity: minimum inhibitory concentration (μg/ml)

Staphylococcus aureus = experiment: as above; type: cell-based
Description: as §1

Proteus mirabilis = experiment: as above; type: cell-based
Description: as §1

Haemophilus influenzae = experiment: as above; type: cell-based
Description: as §1

Proteus vulgaris = experiment: as above; type: cell-based
Description: as §1

Pseudomonas aeruginosa = experiment: as above; type: cell-based
Description: as §1

Klebsiella pneumoniae = experiment: as above; type: cell-based
Description: as §1

Serratia marcescens = experiment: as above; type: cell-based
Description: as §1

Escherichia coli [1] = experiment: as above; type: cell-based
Description: as §1

Escherichia coli [2] = experiment: In vivo activity in mice infected intraperitoneally with Escherichia coli; settings: sc, 96 h, read-out: CD50 (dose with which 50% of the test animals survive); mice infected i.p. with Escherichia coli; s.c. 1, 2 1/2 and 4 hours after infection; survival on fourth day; by interpolation
Protocol: Groups of 5 mice are infected intraperitoneally with an aqueous suspension of Escherichia coli. The test substance is administered subcutaneously in physiological common salt solution three times, i.e. 1 hour, 21/2 hours and 4 hours, after the infection. The number of surviving animals is determined on the fourth day.

[3] = ATCC6538, Staphylococcus aureus strain ATCC 6538
[4] = Staphylococcus aureus pencillin-resistant strain
[5] = Haemophilus influenzae strain 1
[6] = Haemophilus influenzae strain 2
[7] = Haemophilus influenzae strain 3
[8] = Haemophilus influenzae strain 4
[9] = Haemophilus influenzae strain 5
[10] = Haemophilus influenzae strain 6
[11] = Haemophilus influenzae strain 7
[12] = Pseudomonas aeruginosa strain 1
[13] = Pseudomonas aeruginosa strain 2
[14] = Pseudomonas aeruginosa strain 3
[15] = Pseudomonas aeruginosa strain 4
[16] = Pseudomonas aeruginosa strain 5
[17] = Pseudomonas aeruginosa strain 6
[18] = Pseudomonas aeruginosa strain 7

Structure (SMILES)	MIC (Proteus rettgeri)	MIC (Staphylococcus aureus; [3])	MIC (Staphylococcus aureus; [4])	MIC (Proteus mirabilis; Proteus mirabilis strain 1)	MIC (Proteus mirabilis; Proteus mirabilis strain 2)	MIC (Haemophilus influenzae; [5])	MIC (Haemophilus influenzae; [6])	MIC (Haemophilus influenzae; [7])	MIC (Haemophilus influenzae; [8])	MIC (Haemophilus influenzae; [9])	MIC (Haemophilus influenzae; [10])	MIC (Haemophilus influenzae; [11])	MIC (Proteus vulgaris)	MIC (Pseudomonas aeruginosa; [12])	MIC (Pseudomonas aeruginosa; [13])	MIC (Pseudomonas aeruginosa; [14])	MIC (Pseudomonas aeruginosa; [15])	MIC (Pseudomonas aeruginosa; [16])	MIC (Pseudomonas aeruginosa; [17])	MIC (Pseudomonas aeruginosa; [18])	also measured
CO/N=C(\C(=O)N[C@@H]1C(=O)N2C(C(=O)O)=C(CSc3nc(=O)c(O)nn3C)CS[C@H]12)c1csc(N)n1 [Product A]	≤ 0.01 µg/mL	2.5 µg/mL (≈ 4.51 µM)	2.5 µg/mL (≈ 4.51 µM)	≤ 0.01 µg/mL	≤ 0.01 µg/mL	0.08 µg/mL (≈ 0.144 µM)	0.005 µg/mL (≈ 0.00902 µM)	0.005 µg/mL (≈ 0.00902 µM)	0.005 µg/mL (≈ 0.00902 µM)	0.0025 µg/mL (≈ 0.00451 µM)	0.0025 µg/mL (≈ 0.00451 µM)	0.0025 µg/mL (≈ 0.00451 µM)	≤ 0.01 µg/mL	0.3 µg/mL (≈ 0.541 µM)	10 µg/mL (≈ 18 µM)	2.5 µg/mL (≈ 4.51 µM)	5 µg/mL (≈ 9.02 µM)	5 µg/mL (≈ 9.02 µM)	10 µg/mL (≈ 18 µM)	5 µg/mL (≈ 9.02 µM)	MIC (Klebsiella pneumoniae): 1.2 µg/mL (≈ 2.16 µM); MIC (Serratia marcescens): 0.08 µg/mL (≈ 0.144 µM); MIC (Escherichia coli [1]; Escherichia coli strain 1): 0.02 µg/mL (≈ 0.0361 µM); MIC (Escherichia coli [1]; Escherichia coli strain 2): 0.6 µg/mL (≈ 1.08 µM); ED50 (Escherichia coli [2]): ≤ 0.005 mg/kg
CO/N=C(\C(=O)N[C@@H]1C(=O)N2C(C(=O)O)=C(CSc3nc(=O)c(O)nn3C)CS[C@H]12)c1csc(NC(=O)CCl)n1 [Product B, (6R,7R)-7-[2-[2-(2-Chloroacetamido)-4-thiazolyl]-2-(Z-methoxyimino)acetamido]-3-[[(2,5-dihydro-6-hydroxy-2-methyl-5-oxo-as-triazin-3-yl)thiol]methyl]-8-oxo-5-thia-1-azabicyclo[4.2.0]oct-2-ene-2-carboxylic acid]	0.16 µg/mL (≈ 0.254 µM)	2.5 µg/mL (≈ 3.96 µM)	5 µg/mL (≈ 7.92 µM)	0.08 µg/mL (≈ 0.127 µM)	0.16 µg/mL (≈ 0.254 µM)	1.2 µg/mL (≈ 1.9 µM)	0.3 µg/mL (≈ 0.475 µM)	0.16 µg/mL (≈ 0.254 µM)	0.16 µg/mL (≈ 0.254 µM)	0.08 µg/mL (≈ 0.127 µM)	0.16 µg/mL (≈ 0.254 µM)	0.16 µg/mL (≈ 0.254 µM)	0.16 µg/mL (≈ 0.254 µM)	1.2 µg/mL (≈ 1.9 µM)	> 80 µg/mL	40 µg/mL (≈ 63.4 µM)	80 µg/mL (≈ 127 µM)	80 µg/mL (≈ 127 µM)	80 µg/mL (≈ 127 µM)	80 µg/mL (≈ 127 µM)	MIC (Klebsiella pneumoniae): 10 µg/mL (≈ 15.8 µM); MIC (Serratia marcescens): 2.5 µg/mL (≈ 3.96 µM); MIC (Escherichia coli [1]; Escherichia coli strain 1): 0.16 µg/mL (≈ 0.254 µM); MIC (Escherichia coli [1]; Escherichia coli strain 2): 5 µg/mL (≈ 7.92 µM); ED50 (Escherichia coli [2]): 0.16 mg/kg; LD50 (in vivo; iv): 250 to 500 mg/kg; LD50 (in vivo; po): > 5000 mg/kg; LD50 (in vivo; sc): 2000 to 4000 mg/kg

Source: patent publication US4327210A, “Thiazolylacelamide cephalosporins” (Hoffmann-La Roche Inc., priority 1978, dated 1982)
